# Measurements as given in patent US20240358829A1, “Lymphocyte Population and Methods for Producing Same” (AVM Biotechnology, LLC, priority 2021, published 2024).
# Values joined by “and” are separate entries in the source; they are usually repeats but may differ in a detail not shown here. Identical values can stand only once. “Also recorded” adds a separate entry of the source. Like-named read-outs stand apart in the source and are kept apart here.
# Assays:
# [1] = tested on: AVM-NKT cells (CD3highCD49b+); assay type: in vivo, mouse
# From the text: Mice were anesthetized with isoflurane gas.
# [2] = tested on: hCD45+CD56+γδTCR+invTCR+ cells; assay: Humanized mice experiments LYDEP 43 and 45, flow cytometry of blood and bone marrow; assay type: in vivo, mouse
# Method: Female huNOG-EXL mice (n=6) were obtained from Taconic Bioscience (Germantown, NY). Female huCD34-NCG mice (n=8) were obtained from Charles River (Wilmington, MA). Mice from both facilities were acclimated to laboratory conditions for at least 5-6 days.
# After first (03/01/2021) and second dose 1 week later (03/08/2021), when mice reached predetermined time point, they were bled up to 70 μL of blood/mouse via cheek puncture. The blood was analyzed via flow cytometry. After third dose 28 days after the previous dose (on Apr. 5, 2021), when mice reached the study time point, they were euthanized under standard operating procedure summarized here: Mice were anesthetized with isoflurane gas.
# Spleen, Thymus, femurs, and sternum were collected for all mice. Spleen and thymus were processed into single cell suspension for analysis via flow cytometry. Bones were cleaned of muscle using gauze soaked with 70% ethanol and processed for bone marrow to analyze via flow cytometry. Pancreas and colon dissection were performed according to video and instructional JoVE files. The feces were expelled via administering ice-cold PBS with a 22-gauge gavage tube from colon. Other organs like small intestines, cecum, kidneys, lungs, and liver were also collected. All organ weights were recorded after removing excess liquid from the exterior. Soft organs were first fixed in 4% PFA and then transferred to 70% ethanol 24 hrs later and stored at 4° C. Bones were stored directly in 70% ethanol at 4° C. Blood was processed for flow cytometry analysis, and serum collection.
# All flow cytometry was performed in house. Blood, spleen, thymus, and bone marrow were processed via standard staining protocol for flow cytometry. MACSQUANT 16 was used for flow cytometry. Antibody panels slightly varied between first, second and third dose. Markers in the flow panel after first dose analysis included Live/Dead, hCD45, mCD45, hCD56, hTCRgd, hCD3, hCD8, hCD16, hCD19, hCD14. Markers in the flow panel after second dose included all the above, plus hTCRab and hiTCR. In the blood analysis after second dose, 7AAD, CD14 and CD19 were included together in a dump channel. […] For the third dose panel design, when full sac was performed, all markers mentioned above were assigned unique channels to avoid overlap, but TCRab was not included in the final panel due to open channel limitations.
# For cheek bleeds, 70 ul of blood was collected in EDTA coated microtainer and proceeded for immunostaining. […] Blood was stained for live dead marker for 10 min at Room temperature and then for the surface antibodies mentioned above for 20 minutes at room temperature in dark. RBCs were lysed with BD FACS lysing buffer and washed with DPBS and resuspended in 300 ul DBPS. 250 ul of sample was run on MACSquant 16 flow cytometer.
# [3] = tested on: R/R NHL; assay: AVM0703 R/R NHL clinical trial, clinical and PET/CT response, survival; assay type: in vivo, human
# [4] = AVM0703 R/R NHL clinical trial, blood counts; assay type: in vivo, human
# [5] = tested on: CD56+γδTCR+ NKT-like cells
# Method: For characterisation of the induced/mobilized population of NKT-like cells (AVM-NKT) in humans, whole blood from human subjects was drawn in K2 EDTA Vacutainer tube (367862, BD Biosciences, NJ) and shipped to AVM Biotechnology at room temperature. 100 μl of whole blood was stained with the following antibodies: CD45 AF700 (2D1), CD16 APC (3G8), INKT PECy7 (6B11), CD8 PE (SK1), CD14 FITC (M5E2), CD56 BV650 (5.1H11), γδTCR BV510 (B1), CD19 BV421 (HIB19), NKp44 APC (P44-8) (all from Biolegend, San Diego, CA) and CD3 APCVio770 (BW264/56), (Miltenyi Biotec, San Jose, CA), 7-AAD, (Biolegend, San Diego CA) was included to distinguish the live and dead cells. Antibody staining was performed for 15 minutes at room temperature. Erythrocytes present in the sample were lysed using BD FACS lyse (BD Biosciences, San Diego CA) for 10 minutes at room temperature, then washed and resuspended in 300 μl 1×DPBS CMF. Healthy patient blood from BloodWorks (Seattle, WA), unstained and fluorescence minus one (FMO) were included as controls. 250 μl sample was analyzed on MACSQuant 16 (Serial #40150, Miltenyi Biotec, San Jose, CA) flow cytometer. Data was analyzed using Kaluza 2.1 (Beckman Coulter Lifesciences, Indianapolis, IN) software for different immune population. Data obtained from flow cytometry analyzed by Kaluza were combined to determine different cell populations gated from Live CD45 Lymphocytes: CD3+ T cell, CD8+ cytotoxic T cell, CD3+CD56+ (NKT cells) CD3-CD56+, CD3-CD56bright (NK cells) and CD3-CD19+ (B cells), CD3+γδTCR+ cells, CD3+γδTCR bright cells, CD3+iTCR+ cells, Live WBC CD3-CD16bright granulocytes, Live WBC CD3-CD14+ monocytes. Numbers were reported as % WBC and as cells per μl.
# [6] = CR (Charles River) humanized mice, AVM0703 72 hrs
# [7] = Tac (Taconic) humanized mice, AVM0703 72 hrs
# [8] = blood, mouse 10 Taconic NOG-EXL, FIG. 24
# [9] = patient 108-001, after the second 9 mg/kg infusion
smiles,measurement,setting,value
"C[C@@H]1C[C@H]2[C@@H]3CCC4=CC(=O)C=C[C@]4(C)[C@@]3(F)[C@@H](O)C[C@]2(C)[C@@]1(O)C(=O)COP(=O)(O)O [AVM0703, dexamethasone sodium phosphate]",location of induced AVM-NKT cells,"[1]; naïve male Balb/c mice, 48 hours after doses about 29 mg/kg and higher (given as DP)",Induced in Bone Marrow and Fat Tissue
same,location of induced AVM-NKT cells,[1]; naïve male C57Bl/6 mice,in blood
same,"Presence of AVM-NKT cells, 48 hrs spleen",[1]; naïve mice,positive
same,hCD45+(CD56+gdTCR+ inTCR+),[2]; [6],4.4% and 1.8% and 2.3% and 3.5%
same,hCD45+(CD56+gdTCR+),[2]; [6],4.7% and 6.3% and 1.1% and 1.6%
same,hCD45+(CD56+gdTCR+),"[2]; CR (Charles River) humanized mice, AVM0703 96 hrs",1.1% and 0.4% and 4.4% and 1.4%
same,hCD45+(CD56+gdTCR+ inTCR+),[2]; [7],0.7%
same,hCD45+(CD56+gdTCR+),[2]; [7],10.5% and 3.4%
same,hCD45+(CD56+gdTCR+ inTCR+),"[2]; Tac (Taconic) humanized mice, AVM0703 96 hrs",22.6% and 41.9%
same,% of hCD45+CD56+gdTCR+ cells expressing invariant TCR,"[2]; blood, CRL-NCG humanized mice, >18 mg/kg HED",More than 97%
same,"bi-specific immune cell mobilization, % of hCD45+ cells","[2]; blood, humanized mice, >18 mg/kg HED",2-12%
same,% of hCD45+ dim CD56+ gdTCR+ cells positive for CD8 and for CD16,[2]; [8],More than 80%
same,"CD56+ TCRγδ+ cells, % of hCD45+ cells",[2]; [8],12%
same,"bi-specific immune cells, % of hCD45+ cells","[2]; blood, mouse M1, CRL-NCG, >18 mg/kg HED",3.35%
same,"bi-specific immune cells, % of hCD45+ cells","[2]; blood, mouse M3, CRL-NCG, >18 mg/kg HED",4.13%
same,"bi-specific immune cells, % of hCD45+ cells","[2]; blood, mouse M5, CRL-NCG, >18 mg/kg HED",5.14%
same,"bi-specific immune cells, % of hCD45+ cells","[2]; blood, mouse M7, CRL-NCG, >18 mg/kg HED",2.37%
same,% of human CD45+CD56+ cells bispecific for TCRγδ and invariant TCR and CD16 positive,"[2]; bone marrow, 48-60 hours after a third repeat dose of 32 mg/kg HED",More than 60%
same,expression and mobilization of human CD56+γδTCR+invTCR+ immune cells,"[2]; both vendors, all 6 umbilical cord blood donors, 32 mg/kg DP oral",induced the expression and mobilization
same,% of bispecific γδTCR+invTCR+ bone marrow cells that are CD16+,"[2]; humanized mice, >18 mg/kg HED",Around 90%
same,"bi-specific immune cells in bone marrow, % of hCD45+ cells","[2]; humanized mice, >18 mg/kg HED",0.3-8.5%
same,Survival from 1st AVM0703 (months),"[3]; patient 101-001, B-ALL, 6 mg/kg X1",4.8 months
same,Survival from 1st AVM0703 (months),"[3]; patient 103-002, PTCL, 6 mg/kg X1",7 months
same,Survival from 1st AVM0703 (months),"[3]; patient 103-004, T-ALL, 6 mg/kg X1",2.7 months
same,Survival from 1st AVM0703 (months),"[3]; patient 103-005, MCL, 9 mg/kg X1",8.3 months
same,Survival from 1st AVM0703 (months),"[3]; patient 103-006, DLBCL, 9 mg/kg X1, ongoing",>12.6 months
same,Survival from 1st AVM0703 (months),"[3]; patient 103-007, MCL, 12 mg/kg X1, ongoing",>7.6 months
same,Survival from 1st AVM0703 (months),"[3]; patient 103-008, DLBCL, 18 mg/kg X1, ongoing",>2.1 months
same,clinical response,"[3]; patient 108-001, 9 mg/kg, day 3 after 1st infusion",restoration of vision
same,Survival from 1st AVM0703 (months),"[3]; patient 108-001, CNS B-ALL, 9 mg/kg X3, ongoing",>11.8 months
same,CNS solid tumor,[3]; [9],not evident
same,reduction of CSF blasts,[3]; [9],40%
same,response to the third infusion,"[3]; patient 108-001, third 9 mg/kg infusion",loss of response
same,Survival from 1st AVM0703 (months),"[3]; patient 108-002, PTCL, 18 mg/kg X1, ongoing",>10.3 months
same,central Lugano 28 Day,"[3]; patient 108-002, PTCL, 18 mg/kg, monotherapy",PR with SD
same,Survival from 1st AVM0703 (months),"[3]; patient 108-003, AITCL, 12 mg/kg X2, ongoing",>10.2 months
same,"objective beneficial response (PET/CT, clinical chemistries, CBCs or clinical symptoms)","[3]; patient 108-004, 12 mg/kg",did not have any objective clinical beneficial response; also recorded: did not have an objective beneficial response; also recorded: no response to treatment
same,Survival from 1st AVM0703 (months),"[3]; patient 108-004, DLBCL, 12 mg/kg X1, ongoing",>8 months
same,"WBCs, lymphocytes, platelets and RBCs","[4]; AVM0703-001 dose-escalation phase, doses between 6 mg/kg and 18 mg/kg",not depleted
same,hemoglobin,"[4]; R/R MCL patient, after 9 mg/kg infusion",clinically significantly increased
same,Absolute lymphocyte counts (lymphocytosis),"[4]; patient 103-007 (mantle cell lymphoma), 12 mg/kg infusion, between day 4 and 7, 12 mg/kg",reduced to normal lymphocyte levels; also recorded: reduced lymphocytes
same,"monocytes, platelets, hematocrit and RBCs","[4]; patient 103-007, 12 mg/kg",spares normal blood cells; also recorded: not reduced
same,neutrophils,[4]; patients in the AVM0703-001 trial in R/R NHL,some evidence of increased neutrophils
same,% of the CD56+ cells positive for both γδTCR and iTCR,"[5]; lysed whole blood, FIG. 14",51%
same,"CD8 dim/-, % CD56+γδTCR+",[5]; representative subject,~98%
same,"CD14+, % CD56+γδTCR+",[5]; representative subject,67%
same,"CD16+, % CD56+γδTCR+",[5]; representative subject,86%
same,"CD19+, % CD56+γδTCR+",[5]; representative subject,85%
same,"NKp44 positive, % CD56+γδTCR+",[5]; representative subject,~97%
same,"iNKT positive, % CD56+γδTCR+",[5]; representative subject,~96%
same,"CD56+γδTCR+ cells, % of WBC","[5]; whole blood, within 30 minutes post infusion",1.64%
same,"CD16 and NKp46 expression, % of the AVM_NKT cells","[5]; γδTCR+iTCR+ quadrant, FIG. 14",~100%
